Measurements published in patent US20100029604A1, “ANTIBACTERIAL COMBINATION AND ITS USE” (priority 2007, published 2010).
pIC50: −log10 of the molar value. ≈ marks a conversion by molar mass, not a printed value. Like-named read-outs stand apart in the source and are kept apart here.

Columns and labels:
AmpC = AmpC (Enterobacter cloacae, UniProt P05364); format: biochemical, Enterobacter Cloaca; conditions: Class C β-lactamase; 10 min pre-incubation at 37° C., nitrocefin
Description: (§1) A standard test for the production of βlactamase involves use of the chromogenic cephalosporin, nitrocefin.
(§2) Homogeneously purified Class A β-lactamases TEM-1 and SHV-1 from E. coli and Class C enzyme AmpC from Enterobacter Cloaca were employed in the assay.
(§3) Compounds were prepared as 50 mM stocks in DMSO and diluted with buffer P1 (50 mM phosphate, pH 7) to a final concentration of 10% DMSO. All further dilutions were done using P2 (P1 with 10% DMSO). Enzyme and compound dilutions were pre-incubated for 10 min at 37° C. and the reaction started with the addition of pre-warmed (37° C.) nitrocefin (reporter substrate) at a final concentration of […]. The change in absorption at 490 nm was followed at 37° C. for 10 min at 30 sec intervals in a SPECTRAMAX 384 PLUS microplate reader (Molecular Devices, Sunnyvale, Calif.) using 96-well plates. The initial rate was determined and IC50 values were calculated using non-linear regression and sigmoidal dose response analysis with the PRISM 4.0 software (Graphpad Software Inc., San Diego, Calif.). IC50 data is expressed as μM and was calculated from at least two independent experiments.

[1] = system: Class C β-lactamase (AmpC) producing strains; assay: Synergy MIC, Class C strains of Example 4; format: cell-based; conditions: all combinations used
Description: (§4) The in vitro activities of the antibiotics were determined by the broth microdilution method and agar dilution technique as recommended by CLSI guidelines. The MIC experiments were performed in duplicate in 96-well microtiter plates using MHB. Serial twofold dilutions of each antibiotic either alone or in combination with a constant amount (4 μg/mL) of a β-lactamase inhibitor were prepared in MHBII broth. A sterile pipette tip was used to mix the contents of each well (one tip was used going from the low to the high concentration in the same column). The bacterial suspension with final inoculum 10^5 CFU/mL was transferred to the test medium containing the antibacterial substances by a multipoint inoculator (Dynatech, Chantilly, Va., USA). The plates were then incubated at 35° C. for 24 h.
(§5) Following procedures identical to those described in Example 3, representative compound of Formula (I) was tested for its ability to enhance antibiotic efficacy against Class C β-lactamase positive bacterial strains that are highly resistant to β-lactam antibiotics. Class C enzymes included AmpC β-lactamases of Enterobacter Cloacae and Citrobacter freundii.

TEM-1 = TEM-1 (Escherichia coli, UniProt P62593); assay: IC50 determination, nitrocefin hydrolysis; format: biochemical, E. coli; conditions: Class A β-lactamase, 10 min pre-incubation at 37° C.
Sequence of TEM-1 (P62593 24-286 limits assumed): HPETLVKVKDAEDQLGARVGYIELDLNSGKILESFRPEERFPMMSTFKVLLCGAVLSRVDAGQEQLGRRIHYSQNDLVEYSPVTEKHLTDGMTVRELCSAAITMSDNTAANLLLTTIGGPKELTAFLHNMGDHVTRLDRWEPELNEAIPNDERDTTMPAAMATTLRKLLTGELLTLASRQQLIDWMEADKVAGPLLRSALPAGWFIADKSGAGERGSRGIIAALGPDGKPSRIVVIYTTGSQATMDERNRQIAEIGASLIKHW
Description: as §1, §2, §3

SHV-1 = SHV-1 (Escherichia coli, UniProt P0AD63); assay: IC50 determination, nitrocefin hydrolysis; format: biochemical, E. coli; conditions: Class A β-lactamase, 10 min pre-incubation at 37° C.
Sequence of SHV-1 (P0AD63 22-286): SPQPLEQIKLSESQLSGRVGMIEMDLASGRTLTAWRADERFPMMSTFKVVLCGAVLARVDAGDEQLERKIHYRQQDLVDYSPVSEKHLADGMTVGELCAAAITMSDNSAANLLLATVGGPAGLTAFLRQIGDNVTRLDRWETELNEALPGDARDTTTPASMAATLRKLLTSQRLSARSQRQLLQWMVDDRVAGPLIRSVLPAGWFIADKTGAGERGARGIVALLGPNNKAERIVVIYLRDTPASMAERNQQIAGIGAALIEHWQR
Description: as §1, §2, §3

[2] = system: 55 laboratory strains producing characterized β-lactamases; assay: MIC, whole panel of Example 5 (Tables 5-7); format: cell-based; conditions: LK-157 as single agent against the tested strains
Description: The MIC experiments were performed in duplicate in 96-well microtiter plates using CAMHB. Serial twofold dilutions of each antibiotic either alone or in combination with constant concentration ratio of a β-lactamase inhibitor (2:1) were prepared in CAMHB. The bacterial suspension with final inoculum 10^5 CFU/mL was transferred to the test medium containing the antibacterial substances. In each well of a 96-well microtiter plate was combined 50 μL of bacterial inoculum, 50 μL of antibiotic dilutions (or media for determination of the MIC of the antibiotic in the absence of test compound). Each plate included 4 wells with no bacterial inoculum (negative control) and 4 wells with no test compound and no antibiotic (positive control). The plates were incubated at 35° C. for 24 h. Purity check and colony counts on each inoculum suspension was performed to ensure that the final inoculum concentration routinely obtained closely approximates 5×10^5 CFU/mL. In addition the assay is routinely monitored by testing standard antibiotics and ensuring that MIC values are within the recommended ranges for the respective strains.
This test permits comparisons to be made between bacterial growth in the presence of antibiotic alone and bacterial growth in the presence of both an antibiotic and a novel (test) compound.

M. catarrhalis BRO-1 = assay: Synergy MIC, inhibitor at 4 μg/mL (Example 3); format: cell-based, Moraxella catarrhalis; conditions: BRO-1 β-lactamases of M. catarrhalis
Description: (§6) Stock solutions of the test compounds and control antibiotics were prepared in distilled water according to the NCCLS guidelines [Methods for dilution antimicrobial tests for bacteria that grow aerobically. NCCLS document M7-A5; 2000; vol. 19. National Committee for Clinical Laboratory Standards, Villanova, Pa.]. All drug weights were corrected for salt forms and refer to the pure drug substance.
(§7) All tested strains and Clinical isolates were either purchased from the American Type Culture Collection (ATCC), or from the in-house company culture collection.
(§8) Stock cultures were prepared from broth cultures grown at 35° C. for 18-22 h without agitation and subsequent addition of 5% DMSO (v/v, final concentration) as cryoprotectant and stored frozen in liquid nitrogen. Mueller-Hinton II broth (MHBII) (BBL Cockeysville, Md.) was used for the testing procedure.
as §4
(§9) Representative compound of Formula (I) was evaluated against the serine-based Class A β-lactamases including TEM-type, SHV-type extended spectrum β-lactamases (ESBL) and various non-ESBL enzymes of enterobacteriaceae as well as BRO-type enzymes of Moraxella catarrhalis and penicillinases of Staphylococcus aureus.

S. aureus PC = assay: Synergy MIC, inhibitor at 4 μg/mL (Example 3); format: cell-based, Staphylococcus aureus; conditions: penicillinases (PC-type) of S. aureus (MSSA)
Description: as §6, §7, §8, §4, §9

[3] = system: Klebsiella oxytoca ATCC 51983; assay: MIC broth microdilution (Example 2); conditions: ATCC51983
C. freundii AmpC = assay: Synergy MIC, inhibitor at 4 μg/mL (Example 4); format: cell-based, Citrobacter freundii; conditions: class C, inhibitor constant 4 μg/mL
Description: as §4, §5

E. coli TEM-2 = format: cell-based; conditions: TEM-2, class A, inhibitor constant 4 μg/mL
K. pneumoniae SHV-18 = assay: Synergy MIC, inhibitor at 4 μg/mL (Example 4); format: cell-based; conditions: SHV-18, class A, inhibitor constant 4 μg/mL
E. coli SHV-5 = assay: Synergy MIC, inhibitor at 4 μg/mL (Example 4); format: cell-based; conditions: SHV-5, class A, inhibitor constant 4 μg/mL
[4] = system: Klebsiella pneumoniae ATCC 700603; assay: MIC broth microdilution (Example 2); conditions: Klebsiella pneumoniae ATCC 700603 producing SHV-18
E. cloacae AmpC = assay: Synergy MIC, inhibitor at 4 μg/mL (Example 4); format: cell-based, Enterobacter Cloacae; conditions: class C, inhibitor constant 4 μg/mL
Description: as §4, §5

E. coli TEM-1 [5] = format: cell-based; conditions: TEM-1, class A, inhibitor constant 4 μg/mL
E. coli SHV-3 [6] = assay: Synergy MIC, inhibitor at 4 μg/mL (Example 4); format: cell-based; conditions: SHV-3, class A, inhibitor constant 4 μg/mL
C. freundii SHV-5 [7] = assay: Synergy MIC, inhibitor at 4 μg/mL (Example 4); format: cell-based; conditions: SHV-5, class A, inhibitor constant 4 μg/mL
E. coli ESBL = assay: Synergy MIC, inhibitor at 4 μg/mL (Example 3); format: cell-based; conditions: first listed (Table 3 r21), inhibitor constant 4 μg/mL
Description: as §6, §7, §8, §4, §9

C. freundii SHV-5 [8] = assay: Synergy MIC, inhibitor at 4 μg/mL (Example 3); format: cell-based; conditions: β-lactamase SHV-5 (Table 3 r10), inhibitor constant 4 μg/mL
Description: as §6, §7, §8, §4, §9

E. cloacae SHV-12 = assay: Synergy MIC, inhibitor at 4 μg/mL (Example 3); format: cell-based; conditions: β-lactamase SHV-12 (Table 3 r11), inhibitor constant 4 μg/mL
Description: as §6, §7, §8, §4, §9

E. coli SHV-3 [9] = assay: Synergy MIC, inhibitor at 4 μg/mL (Example 3); format: cell-based; conditions: β-lactamase SHV-3 (Table 3 r9), inhibitor constant 4 μg/mL
Description: as §6, §7, §8, §4, §9

K. oxytoca ESBL = assay: Synergy MIC, inhibitor at 4 μg/mL (Example 3); format: cell-based; conditions: ESBL (Table 3 r26), inhibitor constant 4 μg/mL
Description: as §6, §7, §8, §4, §9

M. catarrhalis BRO-2 = assay: Synergy MIC, inhibitor at 4 μg/mL (Example 3); format: cell-based, Moraxella catarrhalis; conditions: β-lactamase BRO-2 (Table 3 r18), inhibitor constant 4 μg/mL
Description: as §6, §7, §8, §4, §9

E. coli TEM-1 [10] = format: cell-based; conditions: β-lactamase TEM-1, first listed (Table 3 r14), inhibitor constant 4 μg/mL
Description: as §6, §7, §8, §4, §9

E. coli TEM-3 = format: cell-based; conditions: β-lactamase TEM-3 (Table 3 r16), inhibitor constant 4 μg/mL
Description: as §6, §7, §8, §4, §9

Sequence of AmpC (P05364 21-381): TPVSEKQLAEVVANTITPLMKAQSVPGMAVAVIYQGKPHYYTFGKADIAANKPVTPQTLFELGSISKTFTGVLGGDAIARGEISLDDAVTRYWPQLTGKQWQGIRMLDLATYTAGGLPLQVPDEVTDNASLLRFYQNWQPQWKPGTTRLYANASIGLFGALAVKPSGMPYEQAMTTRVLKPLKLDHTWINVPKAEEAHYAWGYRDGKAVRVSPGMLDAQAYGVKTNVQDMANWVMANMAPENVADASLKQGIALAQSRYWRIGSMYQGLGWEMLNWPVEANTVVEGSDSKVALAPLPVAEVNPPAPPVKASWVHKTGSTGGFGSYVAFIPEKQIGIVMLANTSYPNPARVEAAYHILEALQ

In the case of C/C=C1/C(=O)N2C(C(=O)O)=C3[C@@H](OC)CCC[C@@H]3[C@H]12 [Compound 1a, (4S,8S,9R)-4-methoxy-10-((E)-ethylidene)-11-oxo-1-azatricyclo[7.2.0.0^3,8]undec-2-ene-2-carboxylic acid], the pIC50 (AmpC) was 7.21, the “activity compared with tazobactam” value [1] was “superior to tazobactam” and the pIC50 (TEM-1) was 7.26. The pIC50 (SHV-1) was 6.82, the “antibiotic activity per se” value [2] was “did not display antibiotic activity per se” and the “activity compared with other β-lactamase inhibitors” value (M. catarrhalis BRO-1) was “more active than the other tested β-lactamase inhibitors”. The “activity compared with other β-lactamase inhibitors” value (S. aureus PC) was “more active than the other tested β-lactamase inhibitors”.
In the case of CO/N=C(\C(=O)N[C@@H]1C(=O)N2C(C(=O)O)=C(CSc3nc(=O)c(=O)[nH]n3C)CS[C@H]12)c1csc(N)n1 [ceftriaxone], the MIC [3] was 2 to 8 µg/mL (≈ 3.61 to 14.4 µM), the MIC (C. freundii AmpC) was > 25.6 µg/mL and the MIC (E. coli TEM-2) was “≦0.025”. The MIC (K. pneumoniae SHV-18) was 6.4 µg/mL, the MIC (E. coli SHV-5) was > 25.6 µg/mL and the “susceptibility of the strain to the antibiotic” value [4] was “susceptible”. For the same compound, the MIC (E. cloacae AmpC; first listed) was > 25.6 µg/mL, the MIC (E. cloacae AmpC; second listed) was > 25.6 µg/mL and the MIC (E. cloacae AmpC; third listed) was > 25.6 µg/mL. For the same compound, the MIC (E. coli TEM-1 [5]) was > 25.6 µg/mL, the MIC (E. coli SHV-3 [6]) was 3.2 µg/mL and the MIC (C. freundii SHV-5 [7]) was 25.6 µg/mL.
With C[C@H]1[C@H](NC(=O)/C(=N\OC(C)(C)C(=O)O)c2csc(N)n2)C(=O)N1S(=O)(=O)O [Aztreonam, aztreonam] the MIC (C. freundii AmpC) was > 25.6 µg/mL, the MIC (E. coli TEM-2) was 0.1 µg/mL (≈ 0.23 µM) and the MIC (K. pneumoniae SHV-18) was > 25.6 µg/mL. For the same compound, the MIC (E. coli SHV-5) was > 25.6 µg/mL, the MIC (E. cloacae AmpC; first listed) was 25.6 µg/mL and the MIC (E. cloacae AmpC; second listed) was > 25.6 µg/mL. For the same compound, the MIC (E. cloacae AmpC; third listed) was 12.8 µg/mL, the MIC (E. coli TEM-1 [5]) was 12.8 µg/mL (≈ 29.4 µM) and the MIC (E. coli SHV-3 [6]) was 0.4 µg/mL.
For CCN1CCN(C(=O)N[C@@H](C(=O)N[C@@H]2C(=O)N3[C@@H]2SC(C)(C)[C@@H]3C(=O)O)c2ccccc2)C(=O)C1=O [PIP, piperacillin], the MIC (E. coli ESBL) was 0.8 µg/mL, the MIC (C. freundii SHV-5 [8]) was > 25.6 µg/mL and the MIC (E. cloacae SHV-12) was > 25.6 µg/mL. For the same compound, the MIC (E. coli SHV-3 [9]) was > 25.6 µg/mL, the MIC (K. oxytoca ESBL) was 3.2 µg/mL and the MIC (M. catarrhalis BRO-2) was 1.6 µg/mL. For the same compound, the MIC (E. coli TEM-1 [10]) was > 25.6 µg/mL and the MIC (E. coli TEM-3) was > 25.6 µg/mL.
With CO/N=C(\C(=O)N[C@@H]1C(=O)N2C(C(=O)[O-])=C(C[n+]3cccc4c3CCC4)CS[C@H]12)c1csc(N)n1 [Cefpirome, cefpirome] the MIC (C. freundii AmpC) was 1.6 µg/mL, the MIC (E. coli TEM-2) was “≦0.025” and the MIC (K. pneumoniae SHV-18) was 0.8 µg/mL. The MIC (E. coli SHV-5) was > 25.6 µg/mL, the MIC (E. cloacae AmpC; first listed) was 6.4 µg/mL and the MIC (E. cloacae AmpC; second listed) was 3.2 µg/mL. It also gave an MIC (E. cloacae AmpC; third listed) of 3.2 µg/mL, an MIC (E. coli TEM-1 [5]) of 25.6 µg/mL (≈ 49.7 µM) and an MIC (E. coli SHV-3 [6]) of 0.8 µg/mL.
